Values of other authors in patent US5032582A, “Method for treating fungal infections with amphotericin B/cholesterol sulfate composition” (Liposome Technology, Inc., priority 1989, dated 1991).

Conditions: in vivo

Structure (SMILES): CC(C)CCC[C@@H](C)[C@H]1CC[C@H]2[C@@H]3CC=C4C[C@@H](OS(=O)(=O)[O-])CC[C@]4(C)[C@H]3CC[C@]12C.[Na+] [cholesterol sulfate, cholesterol 3-sulphate, sodium salt]
- toxicity: no known toxicity
